Key:
[1] = system: SMN2 reporter (SMN2-luciferase) in HEK293 cells; assay: SMN2-luciferase reporter assay; format: cell-based, human; set-up: % Activation: concentration or dose not given beside the values; conditions: for EC50: Homo sapiens, HEK293; for % Activation: percentage increase over basal expression in DMSO control wells
Protocol: (§1) In this high throughput screening assay, the SMN promoter was combined with exons 1-6 and an exon 7 splicing cassette in a single construct that should respond to compounds that increase SMN transcription, exon 7 inclusion, or that might stabilize the SMN RNA or protein. A stable clonal HEK293 cell line that expresses the SMN2 reporter was isolated. Particularly, cells were incubated at 37° C. with 5% CO2. HEK-293 cells were cultured in D-MEM (Gibco 11995) with 10% fetal bovine serum (FBS; Atlas) and 1× pen-strep (Gibco 15140). Reporter cell lines containing SMN1, SMN2, or SV40 driven firefly luciferase reporters and a control (renilla luciferase reporter) were selected and maintained in D-MEM with 10% FBS and 1× pen-strep with 200 μg/mL hygromycin B (Invitrogen 10687-010). 3813 and 3814 fibroblasts were cultured in D-MEM (Gibco 11995) with 10% fetal bovine serum (FBS; Atlas) and 1× pen-strep (Gibco 15140).
The HEK293 reporter cell lines were then plated at 50,000 cells per well in 96-well plates and incubated overnight. […] The final DMSO concentration was 0.1%. Luciferase activity was assayed with either SteadyGlo (Promega E2510) or DualGlo (Promega E2920) luciferase using the Pherastar FS (BMG Labtech) plate reader. For detailed assay conditions, see Table 4. All data points were transformed from light units to percentage increase over basal expression in the treated control wells (DMSO concentration as appropriate, usually 0.1%) and expressed as percent activation (FIG. 1A). […]

SMNΔ7 SMA mice = assay: Survival of SMA mice; format: in vivo; conditions: 10 mg/kg IP daily
Protocol: Compound 291-88-1 was administered either by intraperitoneal (IP) administration into the SMA mice SMNΔ7 FVB.SMNΔ7; SMN2; Smn (Jackson Laboratories 005025). Daily treatment of SMNΔ7 animals with 10 mg/kg (IP) was continued as long as feasible. The lifespan of treated animals was compared to that of untreated animals and vehicle (VH) treated animals (FIG. 13). VH treated animals included treatment with 40% PEG400+60% (10% HP-β-CD in water). […] Treatment with compound 291-88-1 increased median survival to 18.5 days, p<0.0001.

renilla luciferase = assay: Renilla luciferase control in cycloheximide experiment; format: cell-based; conditions: 10 μM compound plus 10 μM cycloheximide
Protocol: as §1
To investigate the mechanism of action of LDN291-88-1, the HEK293 SMN2 reporter cells were exposed to LDN291-88-1 at a concentration of 10 μM plus 10 μM cycloheximide to block new protein synthesis, or the same concentration of cycloheximide plus DMSO for comparison. Cell lysates were prepared at the times indicated up to 24 hours as in FIGS. 3A & 3B. The amount of SMN-luciferase protein was quantified by luciferase assay and plotted versus time. […]

[2] = system: total SMN protein in brain extracts; assay: Brain SMN protein in treated mice, Western blot; format: in vivo; conditions: once daily subcutaneous or oral for 5 days from PND2, tissues PND7, dose-dependent
Protocol: Animals were treated once daily (subcutaneous injection or oral) for 5 days, starting on postnatal day 2 (PND) with increasing doses of 291-88-1. On PND7, mice were sacrificed and tissues were harvested. Tissues were harvested from treated animals on PND 7 and compared to tissues from non-transgenic control mice (FVB) and VH (vehicle: PEG:PBS 50:50) treated animals. Brain extracts were assayed for total SMN protein in comparison to the housekeeping genes, actin and GAPDH (FIGS. 14 and 15, respectively). There was a dose-dependent increase in SMN protein levels ranging from 2-3 fold.

[3] = system: SMN protein in patient-derived fibroblasts (3813 cells; SMN1-/-SMN2+/+); assay: SMN protein detection in patient fibroblasts by Western blot; format: cell-based, human; conditions: 3813 fibroblasts, 48 hours, dose dependent, relative to DMSO control
Protocol: For detection of SMN protein in patient fibroblasts, 8000 cells per cm^2 were plated 24 hours prior to compound addition. Since SMN is expressed ubiquitously, cells containing even one copy of the human SMN1 gene will mask the effects of compounds on expression from the SMN2 gene. SMN null cells are not viable. The current standard is to use a human cell line derived from a severe SMA patient. The fibroblast strain 3813 is SMN1 null with three copies of SMN2. […] SMN protein levels were analyzed by dose response in quantitative immunoblots with statistical analysis by one-way ANOVA with post-hoc analysis using Dunnett or Bonferroni, as appropriate. […] Quantification of protein was performed with the Fujifilm LAS-4000 Multifunctional Imaging System. The signal intensity was measured for each band on an immunoblot, normalized to the loading control, and the fold increase was determined in relation to the appropriate DMSO-treated control. Treatment of patient-derived fibroblasts (3813 cells; SMN1−/−SMN2+/+) with compound 291-88-1 gave a dose dependent 2-3 fold increase of SMN protein expression as determined by Western blot analysis (FIG. 1B).

## O=C(Nc1nc2cnc(C(F)(F)F)cc2s1)c1ccon1 [Compound 299-55-1]
[1]
  EC50: 245 nM
  % Activation: 245%

## O=C(Nc1nc2cnc(C(F)(F)F)cc2s1)c1cncnc1 [Compound 301-90-1]
[1]
  EC50: 2700 nM
  % Activation: 170%

## O=C(Nc1nc2cnc(C(F)(F)F)cc2s1)c1ccno1 [Compound 324-26-1]
[1]
  EC50: 214 nM
  % Activation: 193%

## O=C(Nc1nc2cnc(C(F)(F)F)cc2s1)c1ccsn1 [Compound 324-48-1]
[1]
  EC50: 335 nM
  % Activation: 210%

## O=C(Nc1nc2cnc(C(F)(F)F)cc2o1)c1ccccc1 [Compound 301-62-1]
[1]
  EC50: 1250 nM
  % Activation: 80%

## COc1cc2sc(NC(=O)c3ccccc3)nc2cn1 [Compound 324-2-1]
[1]
  EC50: 675 nM
  % Activation: 150%

## O=C(Nc1nc2cnc(C(F)(F)F)cc2s1)c1cocn1 [Compound 299-54-1]
[1]
  EC50: 1140 nM
  % Activation: 208%

## O=C(Nc1nc2cnc(C(F)(F)F)cc2s1)c1cscn1 [Compound 311-84]
[1]
  EC50: 620 nM
  % Activation: 270%

## O=C(Nc1nc2cnc(C(F)(F)F)cc2s1)c1ccncn1 [Compound 299-73-1]
[1]
  EC50: 2680 nM
  % Activation: 162%

## O=C(Nc1nc2cnc(C(F)(F)F)cc2s1)c1cnco1 [Compound 299-53-1]
[1]
  EC50: 4400 nM
  % Activation: 200%

## O=C(Nc1nc2cnc(C(F)(F)F)cc2s1)c1ccc(F)cc1 [Compound 311-65]
[1]
  EC50: 612 nM
  % Activation: 87.5%

## O=C(Nc1nc2cnc(C(F)(F)F)cc2s1)c1cncs1 [Compound 299-93-1]
[1]
  EC50: 142 nM
  % Activation: 140%

## O=C(Nc1nc2cnc(C(F)(F)F)cc2s1)c1cc[nH]n1 [Compound 324-25-1]
[1]
  EC50: 2040 nM
  % Activation: 178%

## O=C(Nc1nc2cnc(Cl)cc2s1)c1ccccc1 [Compound 299-1-1]
[1]
  EC50: 2020 nM
  % Activation: 154%

## O=C(Nc1nc2cnc(C(F)(F)F)cc2s1)c1nccs1 [Compound 311-85]
[1]
  EC50: 163 nM
  % Activation: 218%

## Cc1cc(C(=O)Nc2nc3cnc(C(F)(F)F)cc3s2)no1 [Compound 324-33-1]
[1]
  EC50: 5400 nM
  % Activation: 110%

## O=C(Nc1nc2cnc(C(F)(F)F)cc2s1)c1ccnnc1 [Compound 299-63-1]
[1]
  EC50: 11300 nM
  % Activation: 163%

## O=C(Nc1nc2cnc(C(F)(F)F)cc2s1)c1cccnc1 [Compound 299-16-1]
[1]
  EC50: 154 nM
  % Activation: 177%

## O=C(Nc1nc2cnc(C(F)(F)F)cc2s1)c1ccccc1 [Compound 291-88-1]
SMNΔ7 SMA mice
  median survival: 18.5 days
[1]; 48 hours, 3 μM
  maximal increase in SMN-luciferase greater than the DMSO control: 400%
[1]
  EC50: 169 nM
  % Activation: 216%
Renilla luciferase
  effect on renilla luciferase: no effect
[2]
  increase in SMN protein levels in brain: 2-3 fold
[3]
  increase of SMN protein expression: 2-3 fold

## O=C(Nc1nc2cnc(C(F)(F)F)cc2s1)c1cnsc1 [Compound 324-44-1]
[1]
  EC50: 380 nM
  % Activation: 220%

## O=C(Nc1nc2ncc(C(F)(F)F)cc2s1)c1ccccc1 [Compound 287-98-2]
[1]
  EC50: 2300 nM
  % Activation: 150%

## O=C(Nc1nc2ncc(C(F)(F)F)cc2s1)c1cncs1 [Compound 299-10-1]
[1]
  EC50: 3200 nM
  % Activation: 112%

## O=C(Nc1nc2ncc(C(F)(F)F)cc2s1)c1ccccn1 [Compound 287-51-1]
[1]
  EC50: 1000 nM
  % Activation: 110%

## O=C(Nc1nc2ncc(C(F)(F)F)cc2s1)c1cscn1 [Compound 299-9-1]
[1]
  EC50: 1220 nM
  % Activation: 154%

## O=C(Nc1nc2cnc(C(F)(F)F)cc2s1)c1ccccn1 [Compound 299-15-1]
[1]
  EC50: 172 nM
  % Activation: 169.5%

## O=C(Nc1nc2cnc(C(F)(F)F)cc2s1)c1ccns1 [Compound 324-36-1]
[1]
  EC50: 64 nM
  % Activation: 198%

## O=C(Nc1nc2cnc(C(F)(F)F)cc2s1)c1ncco1 [N-(6-trifluoromethyl)thiazolo[4,5-c]pyridin-2-yl)oxazole-2-carboxamide]
[1]
  EC50: 1300 nM
  % Activation: 74%
